Drawing on patent US20230131899A1, “INHIBITORS OF MICROBIALLY INDUCED AMYLOID” (Axial Therapeutics, Inc., priority 2020, published 2023), this text covers IC50 for 16 compounds.

Like-named read-outs stand apart in the source and are kept apart here.

The experiment relates to CsgA gene expression (csgBAC promoter-GFP reporter) in E. coli UTI89. Kind of experiment: In vitro live cell fluorescent reporter assay of CsgA transcription (Reporter Assay). Format: cell-based. Conditions: Escherichia coli. The gist of the method:
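Chromosomal single-copy csgBAC promoter–GFP reporter in E. coli UTI89, started at OD600 0.003 in YESCA broth with compound (0.14–100 μM, 1% DMSO), 20 h at 27 °C. GFP (ex 485/em 525 nm) background-subtracted and normalized to vehicle; IC50 and X[50] from curve fits. OD600 tracked growth effects.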

Setting [1] is: read-out: Reporter Assay Abs IC50 (μM), median Abs IC50 in the CsgA reporter assay, N/A = maximum expression reduction is <50% of control.
Setting [2] is: read-out: Reporter Assay Abs IC50, activity range, class symbol.
The mark [3] stands for this setting: read-out: Reporter Assay Abs IC50 (activity range), median Abs IC50 in the CsgA reporter assay, class symbol.

As usually defined, the IC50 is the point on the concentration scale where inhibition reaches its midpoint. For the compound `CCCCN1CC(C(=O)O)n2c1c(-c1cccc(C(F)(F)F)c1)c(Cc1cccc3ccccc13)c(Cl)c2=O` (centres unmarked) [Compound 163, 1-butyl-6-chloro-7-(naphthalen-1-ylmethyl)-5-oxo-8-(3-(trifluoromethyl)phenyl)-1,2,3,5-tetrahydroimidazo[1,2-a]pyridine-3-carboxylic acid], the IC50 was 1.2 µM under setting [1] and less than 1.3 µM under setting [2].
For `CN1CC(C(=O)O)n2c(c(-c3cccc(C(F)(F)F)c3)c(Cc3cccc4ccccc34)c(C(=O)N3CCOCC3)c2=O)S1(=O)=O` (centres unmarked) [Compound 160, 2-methyl-7-(morpholine-4-carbonyl)-8-(naphthalen-1-ylmethyl)-6-oxo-9-(3-(trifluoromethyl)phenyl)-3,4-dihydro-2H,6H-pyrido[1,2-e][1,2,5] thiadiazine-4-carboxylic acid 1,1-dioxide], in that order: 65.8 µM and more than 10 µM.
For `CCCN1CC(C(=O)O)n2c(c(-c3cccc(C(F)(F)F)c3)c(Cc3cccc4ccccc34)c(NC(=O)C(C)C)c2=O)S1(=O)=O` (centres unmarked) [Compound 152, 7-isobutyramido-8-(naphthalen-1-ylmethyl)-6-oxo-2-propyl-9-(3-(trifluoromethyl)phenyl)-3,4-dihydro-2H,6H-pyrido[1,2-e][1,2,5]thiadiazine-4-carboxylic acid 1,1-dioxide], in that order: 11.4 µM and more than 10 µM.
`CN(C)C(=O)c1c(Cc2cccc3ccccc23)c(-c2cccc(C(F)(F)F)c2)c2n(c1=O)C(C(=O)O)CN(C)S2(=O)=O` (centres unmarked) [Compound 173, 7-(dimethylcarbamoyl)-2-methyl-8-(naphthalen-1-ylmethyl)-6-oxo-9-(3-(trifluoromethyl)phenyl)-3,4-dihydro-2H,6H-pyrido[1,2-e] [1,2,5] thiadiazine-4-carboxylic acid 1,1-dioxide]: the half-maximal inhibitory concentration (IC50) is, setting by setting: under setting [1], 6.7 µM; under setting [2], 4.6 to 10 µM.
Turning to `O=C(O)C1CN(CC2CCCC2)c2c(-c3cccc(C(F)(F)F)c3)c(Cc3cccc4ccccc34)c(Cl)c(=O)n21` (centres unmarked) [Compound 167, 6-chloro-1-(cyclopentylmethyl)-7-(naphthalen-1-ylmethyl)-5-oxo-8-(3-(trifluoromethyl)phenyl)-1,2,3,5-tetrahydroimidazo[1,2-a]pyridine-3-carboxylic acid], the IC50 by setting is: under setting [1], 0.6 µM; under setting [2], less than 1.3 µM.
As to `COc1ccc(CN2CC(C(=O)O)n3c2c(-c2cccc(C(F)(F)F)c2)c(Cc2cccc4ccccc24)c(Cl)c3=O)cc1` (centres unmarked) [Compound 192, 6-chloro-1-(4-methoxybenzyl)-7-(naphthalen-1-ylmethyl)-5-oxo-8-(3-(trifluoromethyl)phenyl)-1,2,3,5-tetrahydroimidazo[1,2-a]pyridine-3-carboxylic acid], the IC50 was 2.5 µM under setting [1] and 1.3 to 4.5 µM under setting [2].
Turning to `O=C(O)C1CN(Cc2ccccc2)c2c(-c3cccc(C(F)(F)F)c3)c(Cc3cccc4ccccc34)c(Br)c(=O)n21` (centres unmarked) [Compound 003, 1-benzyl-6-bromo-7-(naphthalen-1-ylmethyl)-5-oxo-8-(3-(trifluoromethyl)phenyl)-1,2,3,5-tetrahydroimidazo[1,2-a]pyridine-3-carboxylic acid], the IC50 is, setting by setting: under setting [1], 0.8 µM; under setting [2], less than 1.3 µM.
The like results for `O=C(O)C1CN(CCc2ccccc2)c2c(-c3cccc(C(F)(F)F)c3)c(Cc3cccc4ccccc34)c(Cl)c(=O)n21` (centres unmarked) [Compound 178, 6-chloro-7-(naphthalen-1-ylmethyl)-5-oxo-1-phenethyl-8-(3-(trifluoromethyl)phenyl)-1,2,3,5-tetrahydroimidazo[1,2-a]pyridine-3-carboxylic acid] were, in that order, 0.8 µM and less than 1.3 µM.
For `CCCN1CC(C(=O)O)n2c(c(-c3cccc(C(F)(F)F)c3)c(Cc3cccc4ccccc34)c(OCC)c2=O)S1(=O)=O` (centres unmarked) [Compound 143, 7-ethoxy-8-(naphthalen-1-ylmethyl)-6-oxo-2-propyl-9-(3-(trifluoromethyl)phenyl)-3,4-dihydro-2H,6H-pyrido[1,2-e][1,2,5]thiadiazine-4-carboxylic acid 1,1-dioxide], in that order: 5.2 µM and 4.6 to 10 µM.
Turning to `O=C(O)C1CN(CC2CCCCC2)c2c(-c3cccc(C(F)(F)F)c3)c(Cc3cccc4ccccc34)c(Cl)c(=O)n21` (centres unmarked) [Compound 180, 6-chloro-1-(cyclohexylmethyl)-7-(naphthalen-1-ylmethyl)-5-oxo-8-(3-(trifluoromethyl)phenyl)-1,2,3,5-tetrahydroimidazo[1,2-a]pyridine-3-carboxylic acid], the IC50 by setting is: under setting [1], 0.5 µM; under setting [2], less than 1.3 µM.
For the compound `Cn1c(=O)c2c(nc(CCCCN3CC(C(=O)O)n4c(c(-c5cccc(C(F)(F)F)c5)c(Cc5cccc6ccccc56)cc4=O)S3(=O)=O)n2C)n(C)c1=O` (centres unmarked) [Compound 044, 8-(naphthalen-1-ylmethyl)-6-oxo-9-(3-(trifluoromethyl)phenyl)-2-(4-(1,3,7-trimethyl-2,6-dioxo-2,3,6,7-tetrahydro-1H-purin-8-yl)butyl)-3,4-dihydro-2H,6H-pyrido[1,2-e][1,2,5]thiadiazine-4-carboxylic acid 1,1-dioxide], the IC50 under setting [3] lay in the range of 1.3 to 4.5 µM and the IC50 under setting [1] was determined as 1.5 µM.
`O=C(O)C1CN(Cc2cccc3ccccc23)c2c(-c3cccc(C(F)(F)F)c3)c(Cc3cccc4ccccc34)c(Cl)c(=O)n21` (centres unmarked) [Compound 200, 6-chloro-1,7-bis(naphthalen-1-ylmethyl)-5-oxo-8-(3-(trifluoromethyl)phenyl)-1,2,3,5-tetrahydroimidazo[1,2-a]pyridine-3-carboxylic acid]: the IC50 reads like this: under setting [1], 1.3 µM; under setting [2], 1.3 to 4.5 µM.
The like results for `O=C(O)[C@H]1CN(Cc2ccccc2)c2c(-c3cccc(C(F)(F)F)c3)c(Cc3cccc4ccccc34)c(Cl)c(=O)n21` (single isomer, unassigned) [Compound 004b] were, in that order, 0.5 µM and less than 1.3 µM.
Take `CN(C)C(=O)C1CN(C)S(=O)(=O)c2c(-c3cccc(C(F)(F)F)c3)c(Cc3cccc4ccccc34)cc(=O)n21` (centres unmarked) [Compound 032, N,N-2-trimethyl-8-(naphthalen-1-ylmethyl)-6-oxo-9-(3-(trifluoromethyl)phenyl)-3,4-dihydro-2H,6H-pyrido[1,2-e][1,2,5]thiadiazine-4-carboxamide 1,1-dioxide]: the IC50 runs as follows: under setting [3], 1.3 to 4.5 µM; under setting [1], 3.3 µM.
For `O=C(O)C1CN(C[C@@H](O)CO)S(=O)(=O)c2c(-c3cccc(C(F)(F)F)c3)c(Cc3cccc4ccccc34)cc(=O)n21` (mixture of isomers) [Compound 065b, 2-((R)-2,3-dihydroxypropyl)-8-(naphthalen-1-ylmethyl)-6-oxo-9-(3-(trifluoromethyl)phenyl)-3,4-dihydro-2H,6H-pyrido[1,2-e][1,2,5]thiadiazine-4-carboxylic acid 1,1-dioxide], in that order: more than 10 µM and 18.1 µM.
On to `Cn1c(=O)c2c(ncn2CCCCCCCN2CC(C(=O)O)n3c(c(-c4cccc(C(F)(F)F)c4)c(Cc4cccc5ccccc45)cc3=O)S2(=O)=O)n(C)c1=O` (centres unmarked) [Compound 036], for which the IC50 runs as follows: under setting [3], 1.3 to 4.5 µM; under setting [1], 1.6 µM.
